Data taken from US20210330611A1, “THERAPY FOR NEUROLOGICAL DISEASES/DISORDERS” (priority 2020, published 2021).
Where “and” joins values, the source holds several entries; their conditions need not be identical. Equal entries are not always repeated. Where two headings read alike, the source gives them in different places.

Experiments:
primary rat microglia [1] = settings: rat
[2] = system: fibrin- and LPS-induced microglia activation; test: cells; format: cell-based, rat
primary rat microglia [3] = test: Cell toxicity (dead cells, size <150 μm2) in coated fibrin (cFib) assay; settings: for Fibrin % cell toxicity: primary microglia HTS;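 for Fibrin % cell toxicity: share of dead cells sized under 150 µm2 at 10 µM in fibrin-stimulated microglia HTS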
[4] = system: LPS-induced microglia activation; test: Image-based assay of LPS-induced microglia activation (HTS and dose response); format: cell-based, rat; settings: for inhibition at 10 µM: read-out: LPS % inhibition
[5] = system: fibrin-induced microglia activation; test: Image-based assay of fibrin-induced microglia activation (HTS and dose response); format: cell-based, rat; settings: for inhibition at 10 µM: read-out: Fibrin % inhibition
[6] = quadrant by fibrin and LPS inhibition, HTS at 10 μM
[7] = fibrin assay, dead cells (size <150 μm2)
[8] = Rattus norvegicus, Microglia, primary microglia HTS, LPS stimulation, compounds at 10 μM
[9] = primary microglia HTS, LPS stimulation, compounds at 10 μM, 10 µM
[10] = classification by fibrin and LPS inhibition, HTS at 10 μM
[11] = fibrin assay, dead cells (size <150 μm2), compounds at 10 μM
[12] = quadrant by fibrin and LPS inhibition in HTS of 1907 compounds
[13] = Rattus norvegicus, Microglia, 48 h
[14] = classification by fibrin and LPS inhibition in HTS
[15] = fibrin stimulation, cell size <150 μm2 as marker of toxicity
[16] = HTS of 1907 compounds, quadrant by fibrin and LPS inhibition

Compound: CC(C)NCC(O)COc1cccc2ccccc12 (stereo not drawn) [1-(Isopropylamino)-3-(1-Naphthyloxy)-2-Propanol]
- LPS % cell toxicity (primary rat microglia [1]): 0%

Compound: C[C@@H]1[C@H](O)[C@@H](C)/C=C/C=C/C=C/C=C/C=C/C=C/C=C/[C@H](O[C@@H]2O[C@H](C)[C@@H](O)[C@H](N)[C@@H]2O)C[C@@H]2O[C@](O)(C[C@@H](O)C[C@@H](O)[C@H](O)CC[C@@H](O)C[C@@H](O)CC(=O)O[C@H]1C)C[C@H](O)[C@H]2C(=O)O [Amphotericin B]
- Quadrant (FIG. 5b) [2, 6]: Q4
- Fibrin % cell toxicity (primary rat microglia [3]; [7]): 1%

Compound: O=C1CN2Cc3c(ccc(Cl)c3Cl)N=C2N1 [Anagrelide]
- Quadrant (FIG. 5b) [2, 6]: Q4
- Fibrin % cell toxicity (primary rat microglia [3]; [7]): 1%

Compound: O=C1CCc2ccc(OCCCCN3CCN(c4cccc(Cl)c4Cl)CC3)cc2N1 [Aripiprazole]
- LPS % cell toxicity (primary rat microglia [1]): 0%
- Quadrant (FIG. 5b) [2]: Q4

Compound: CN(C)C(=O)Oc1cc(OC(=O)N(C)C)cc(C(O)CNC(C)(C)C)c1 (stereo not drawn) [Bambuterol]
- inhibition at 10 µM [4, 8]: 9%
- LPS % inhibition [4, 9]: 13%
- Quadrant (FIG. 5b) [2, 6]: Q4
- Fibrin % cell toxicity (primary rat microglia [3]; [7]): 1%

Compound: CC(C)NCC(O)COc1ccc(CCOCC2CC2)cc1 (stereo not drawn) [Betaxolol]
- LPS % cell toxicity (primary rat microglia [1]): 0%
- Quadrant (FIG. 5b) [2]: Q4

Compound: Clc1ccc2c(c1)CCc1cccnc1C2=C1CCNCC1 [Desloratadine]
- LPS % cell toxicity (primary rat microglia [1]): 0%
- Quadrant (FIG. 5b) [2]: Q4

Compound: C[C@H]1O[C@@H](O[C@H]2[C@@H](O)C[C@H](O[C@H]3[C@@H](O)C[C@H](O[C@H]4CC[C@@]5(C)[C@H](CC[C@@H]6[C@@H]5CC[C@]5(C)[C@@H](C7=CC(=O)OC7)CC[C@]65O)C4)O[C@@H]3C)O[C@@H]2C)C[C@H](O)[C@@H]1O [Digitoxin]
- Quadrant (FIG. 5b) [2, 10]: Q4
- Fibrin % cell toxicity (primary rat microglia [3]; [11]): 1%

Compound: CN1C[C@H](C(=O)N[C@]2(C)O[C@@]3(O)[C@@H]4CCCN4C(=O)[C@H](Cc4ccccc4)N3C2=O)C[C@@H]2c3cccc4[nH]cc(c34)C[C@H]21 [Dihydroergotamine]
- Fibrin % inhibition ([5]; primary microglia HTS, fibrin stimulation, compounds at 10 μM, 10 µM): 7% and −3%
- inhibition at 10 µM [4, 8]: 39%
- LPS % inhibition [4, 9]: 22%
- Quadrant (FIG. 5b) [2, 10]: Q4
- Fibrin % cell toxicity (primary rat microglia [3]; [11]): 1% and 0%

Compound: CCN(CC)C(=O)/C(C#N)=C/c1cc(O)c(O)c([N+](=O)[O-])c1 [Entacapone]
- inhibition at 10 µM [4, 8]: 11%
- LPS % inhibition [4, 9]: 17%
- Quadrant (FIG. 5b) [2, 10]: Q4
- Fibrin % cell toxicity (primary rat microglia [3]; [11]): 1%

Compound: COc1ccc2[nH]c([S+]([O-])Cc3ncc(C)c(OC)c3C)nc2c1 (stereo not drawn) [Esomeprazole; Omeprazole]
- LPS % inhibition [4, 9]: 24% and 13%
- Quadrant (FIG. 5b) [2, 10]: Q4
- Fibrin % cell toxicity (primary rat microglia [3]; [11]): 0% and 1%

Compound: C[C@]12CC[C@@H]3c4ccc(O)cc4CC[C@H]3[C@@H]1CC[C@@H]2O [Estradiol]
- LPS % cell toxicity (primary rat microglia [1]): 0%
- Quadrant (FIG. 5b) [2, 10]: Q4

Compound: C#C[C@]1(OC(C)=O)CC[C@H]2[C@@H]3CCC4=C[C@@H](OC(C)=O)CC[C@@H]4[C@H]3CC[C@@]21C [Ethynodiol Diacetate]
- Quadrant (FIG. 5b) [2, 10]: Q4
- Fibrin % cell toxicity (primary rat microglia [3]; [11]): 1%

Compound: CCC(=O)c1c(O)cc(O)cc1O [Flopropione]
- inhibition at 10 µM ([5]; Rattus norvegicus, Microglia, primary microglia HTS, fibrin stimulation, activation = cell size >800 μm2): -35%
- inhibition at 10 µM ([4]; Rattus norvegicus, Microglia, 48 h, primary microglia HTS, LPS stimulation, activation = cell size >800 μm2): 10%
- Quadrant (FIG. 5b) [2, 12]: Q4
- Fibrin % cell toxicity (primary rat microglia [3]; fibrin stimulation, toxicity = cell size <150 μm2): 1%

Compound: COc1cc2ncnc(Nc3ccc(F)c(Cl)c3)c2cc1OCCCN1CCOCC1 [Gefitinib]
- LPS % cell toxicity (primary rat microglia [1]): 0%
- Quadrant (FIG. 5b) [2]: Q4

Compound: CCN(CC)C(=O)N[C@H]1C=C2c3cccc4[nH]cc(c34)C[C@H]2N(C)C1 [Lisuride]
- LPS % cell toxicity (primary rat microglia [1]): 0%
- Quadrant (FIG. 5b) [2]: Q4

Compound: CC#C[C@]1(O)CC[C@H]2[C@@H]3CCC4=CC(=O)CCC4=C3[C@@H](c3ccc(N(C)C)cc3)C[C@@]21C [Mifepristone]
- inhibition at 10 µM ([5]; Rattus norvegicus, Microglia, primary microglia HTS, fibrin stimulation, increased cell size (>800 μm^2) as marker of activation): 12%
- LPS % cell toxicity (primary rat microglia [1]): 0%
- Quadrant (FIG. 5b) [2, 12]: Q4

Compound: O=C(O)C(O)C(O)C(=O)O.OCc1cccnc1 (stereo not drawn) [Nicotinyl Alcohol Tartrate]
- LPS % cell toxicity (primary rat microglia [1]): 0%
- Quadrant (FIG. 5b) [2, 12]: Q4

Compound: CC(N)C12CC3CC(CC(C3)C1)C2 (stereo not drawn) [Rimantadine]
- inhibition at 10 µM ([5]; Rattus norvegicus, Microglia, primary microglia HTS, fibrin stimulation, cell size >800 μm2 as marker of activation): -19%
- inhibition at 10 µM ([5]; Rattus norvegicus, Microglia, primary microglia HTS, fibrin stimulation, compounds at 10 μM): 106%
- inhibition at 10 µM [4, 13]: 2%
- inhibition at 10 µM [4, 8]: 106%
- Quadrant (FIG. 5b) [2, 14]: Q4
- Quadrant (FIG. 5b) [2, 6]: Q2
- Fibrin % cell toxicity (primary rat microglia [3]; [7]): 93%
- Fibrin % cell toxicity (primary rat microglia [3]; [15]): 0%

Compound: Cc1nc2n(c(=O)c1CCN1CCC(c3noc4cc(F)ccc34)CC1)CCCC2 [Risperidone]
- LPS % cell toxicity (primary rat microglia [1]): 0%
- Quadrant (FIG. 5b) [2]: Q4

Compound: C[C@@H]1CN(c2c(F)c(N)c3c(=O)c(C(=O)O)cn(C4CC4)c3c2F)C[C@H](C)N1 [Sparfloxacin]
- inhibition at 10 µM [4, 13]: 11%
- Quadrant (FIG. 5b) [2, 14]: Q4
- Fibrin % cell toxicity (primary rat microglia [3]; [15]): 0% and 1%

Compound: Cn1nnc2c(C(N)=O)ncn2c1=O [Temozolomide]
- Fibrin % inhibition ([5]; primary microglia HTS, 10 μM, fibrin-stimulated, cell size >800 μm^2 as marker of activation): −31% and −26%
- LPS % cell toxicity (primary rat microglia [1]): 0%
- Quadrant (FIG. 5b) [2, 16]: Q4

Compound: Cc1ncc(C[n+]2csc(CCO)c2C)c(N)n1 [Thiamine]
- LPS % cell toxicity (primary rat microglia [1]): 0%
- Quadrant (FIG. 5b) [2]: Q4

Compound: CN(C)CCCN1c2ccccc2Sc2ccc(C(F)(F)F)cc21 [Triflupromazine]
- LPS % cell toxicity (primary rat microglia [1]): 1%

Compound: CC(C)=CCc1c2c(c3occ(-c4ccc(O)c(O)c4)c(=O)c3c1O)C=CC(C)(C)O2 [pomiferin]
- IC50 ([5]; Rattus norvegicus, Microglia, Table 7, read-out: fib_IC50): 0.251 µM
- IC50 ([4]; Rattus norvegicus, Microglia, Table 7, read-out: LPS_IC50): 0.123 µM
- IC50 (primary rat microglia [3]; Rattus norvegicus, Microglia, read-out: dead_IC50 (uM), Table 7, fibrin or LPS assay not specified): 3.45 µM

Compound: Medroxyprogesterone [reference compound]
- IC50 ([5]; Table 1, dose response 0.001-20 μM, triplicates, primary rat microglia, 48 h, read-out: Fibrin IC50): > 20 µM
- IC50 ([5]; dose response, fibrin-induced microglia activation, read-out: Fibrin IC50): > 20 µM
- IC50 ([5]; fibrin-induced microglia activation, dose response, read-out: Fibrin IC50 (uM) (Suppl. Table 7)): > 20 µM
- Fibrin % inhibition ([5]; primary microglia HTS, fibrin stimulation, increased cell size (>800 μm^2) as marker of activation): 61%
- IC50 ([4]; LPS-induced microglia activation, dose response, read-out: LPS IC50 (uM) (Suppl. Table 7)): 8 µM
- IC50 ([4]; Table 1, dose response 0.001-20 μM, triplicates, primary rat microglia, 48 h, read-out: LPS IC50): 8 µM
- IC50 ([4]; dose response, LPS-induced microglia activation, read-out: LPS IC50): 8 µM
- LPS % inhibition ([4]; primary microglia HTS, LPS stimulation, increased cell size (>800 μm^2) as marker of activation): 6%
- Quadrant (FIG. 5b) [2, 16]: Q3
- Quadrant (FIG. 5b) ([2]; Table 1, screen at 10 μM): Q3
- Quadrant (FIG. 5b) [2, 12]: Q3

Compound: Oxolamine Citrate
- Fibrin % inhibition [5]: −1%
- LPS % inhibition [4]: 10%
- Quadrant (FIG. 5b) [2]: Q4

Compound: Spiramycin
- Fibrin % inhibition ([5]; primary microglia HTS, fibrin stimulation, cell size >800 μm2 as marker of activation): 17%
- LPS % inhibition [4]: 14%
- Quadrant (FIG. 5b) [2, 14]: Q4

Compound: neomycin sulfate
- fib specificity [5]: 2.2
- fib_HS [5]: −0.75
- IC50 ([5]; read-out: fib_IC50): 2.3 µM
- LPS specificity [4]: 0.5
- Activity [2]: fib/LPS

Compound: podophyllotoxin acetate
- fib_HS ([5]; Hill slope of fibrin dose response, Table 7): −1.10
- fib specificity ([5]; Table 7): 0.5
- LPS_HS ([4]; Hill slope of LPS dose response, Table 7): −0.87
- LPS specificity ([4]; Table 7): 1.8
- IC50 ([4]; Table 7, read-out: LPS_IC50): 0.012 µM
- Activity ([2]; Table 7, fib = fibrin, LPS, tox = toxicity): fib/LPS
